PubChem BioAssay AID2060618 (Molecular Pharmacology Branch, DTP, NCI, 2025)

System: 454973-116-R2-J3-PDC spheroids, percent test/control viability
Assay: Anticancer human tumor 454973-116-R2-J3-PDC patient-derived pancreatic carcinoma cell line growth inhibition [CLK]
Details: spheroids with HUVEC and MSC; for IC50: curve of first compound; for viability, T/C: stronger effect = lower value
Summary of the method: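 Multi-cell-type spheroids combined patient-derived tumor cells with HUVEC endothelial cells and human mesenchymal stem cells. Paired agents were dosed in half-log steps down from about clinical Cmax, or from 10 microM where Cmax was unknown.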

[1] = second compound 0.0316 µM, first compound 0.0316 µM
[2] = second compound 0.0316 µM, first compound 0.1 µM
[3] = second compound 0.0316 µM, first compound 0.316 µM
[4] = second compound 0.0316 µM, first compound 1 µM
[5] = second compound 0.1 µM, first compound 0.0316 µM
[6] = second compound 0.1 µM, first compound 0.1 µM
[7] = second compound 0.1 µM, first compound 0.316 µM
[8] = second compound 0.1 µM, first compound 1 µM
[9] = second compound 0.316 µM, first compound 0.0316 µM
[10] = second compound 0.316 µM, first compound 0.1 µM
[11] = second compound 0.316 µM, first compound 0.316 µM
[12] = second compound 0.316 µM, first compound 1 µM
[13] = second compound 1 µM, first compound 0.0316 µM
[14] = second compound 1 µM, first compound 0.1 µM
[15] = second compound 1 µM, first compound 0.316 µM
[16] = second compound 1 µM, first compound 1 µM
[17] = second compound 3.16 µM, first compound 0.0316 µM
[18] = second compound 3.16 µM, first compound 0.1 µM
[19] = second compound 3.16 µM, first compound 0.316 µM
[20] = second compound 3.16 µM, first compound 1 µM
[21] = second compound 10 µM, first compound 0.0316 µM
[22] = second compound 10 µM, first compound 0.1 µM
[23] = second compound 10 µM, first compound 0.316 µM
[24] = second compound 10 µM, first compound 1 µM
[25] = second compound 0.0316 µM, first compound 3.16 µM
[26] = second compound 0.0316 µM, first compound 10 µM
[27] = second compound 0.1 µM, first compound 3.16 µM
[28] = second compound 0.1 µM, first compound 10 µM
[29] = second compound 0.316 µM, first compound 3.16 µM
[30] = second compound 0.316 µM, first compound 10 µM
[31] = second compound 1 µM, first compound 3.16 µM
[32] = second compound 1 µM, first compound 10 µM
[33] = second compound 3.16 µM, first compound 3.16 µM
[34] = second compound 3.16 µM, first compound 10 µM
[35] = second compound 10 µM, first compound 3.16 µM
[36] = second compound 10 µM, first compound 10 µM
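Further: spheroids exposed to compounds for 7 days before readout.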

SMILES: CCc1c2c(nc3ccc(O)cc13)-c1cc3c(c(=O)n1C2)COC(=O)[C@]3(O)CC + CN1CCN(c2cc(C(=O)Nc3cc4cc(-c5cnn(C)c5)ccc4cn3)ccn2)CC1
- IC50 (second compound 0.0316 µM): < 3.16 nM
- IC50 (second compound 0.1 µM): < 3.16 nM
- IC50 (second compound 0.316 µM): < 3.16 nM
- IC50 (second compound 1 µM): < 3.16 nM
- IC50 (second compound 3.16 µM): < 3.16 nM
- IC50 (second compound 10 µM): < 3.16 nM
- viability, T/C (second compound 0.0316 µM, first compound 0.00316 µM): 26.9%
- viability, T/C (second compound 0.0316 µM, first compound 0.01 µM): 17.1%
- viability, T/C [1]: 12.6%
- viability, T/C [2]: 6.38%
- viability, T/C [3]: 3.17%
- viability, T/C [4]: 0.71%
- viability, T/C (second compound 0.1 µM, first compound 0.00316 µM): 21.8%
- viability, T/C (second compound 0.1 µM, first compound 0.01 µM): 21.1%
- viability, T/C [5]: 9.73%
- viability, T/C [6]: 3.23%
- viability, T/C [7]: 1.75%
- viability, T/C [8]: 0.31%
- viability, T/C (second compound 0.316 µM, first compound 0.00316 µM): 2.15%
- viability, T/C (second compound 0.316 µM, first compound 0.01 µM): 3.91%
- viability, T/C [9]: 2.2%
- viability, T/C [10]: 0.98%
- viability, T/C [11]: 0.1%
- viability, T/C [12]: 0.1%
- viability, T/C (second compound 1 µM, first compound 0.00316 µM): 0.08%
- viability, T/C (second compound 1 µM, first compound 0.01 µM): 0.1%
- viability, T/C [13]: 0.1%
- viability, T/C [14]: 0.05%
- viability, T/C [15]: 0.07%
- viability, T/C [16]: 0.09%
- viability, T/C (second compound 3.16 µM, first compound 0.00316 µM): 0.1%
- viability, T/C (second compound 3.16 µM, first compound 0.01 µM): 0.13%
- viability, T/C [17]: 0.14%
- viability, T/C [18]: 0.11%
- viability, T/C [19]: 0.16%
- viability, T/C [20]: 0.15%
- viability, T/C (second compound 10 µM, first compound 0.00316 µM): 0.07%
- viability, T/C (second compound 10 µM, first compound 0.01 µM): 0.12%
- viability, T/C [21]: 0.17%
- viability, T/C [22]: 0.18%
- viability, T/C [23]: 0.21%
- viability, T/C [24]: 0.18%

SMILES: Nc1ccn(C2OC(CO)C(O)C2(F)F)c(=O)n1 (stereo unspecified) + CN1CCN(c2cc(C(=O)Nc3cc4cc(-c5cnn(C)c5)ccc4cn3)ccn2)CC1
- IC50 (second compound 0.0316 µM): < 31.6 nM
- IC50 (second compound 0.1 µM): < 31.6 nM
- IC50 (second compound 0.316 µM): < 31.6 nM
- IC50 (second compound 1 µM): < 31.6 nM
- IC50 (second compound 3.16 µM): < 31.6 nM
- IC50 (second compound 10 µM): < 31.6 nM
- viability, T/C [1]: 10.3%
- viability, T/C [2]: 9.2%
- viability, T/C [3]: 11.2%
- viability, T/C [4]: 10.4%
- viability, T/C [25]: 11%
- viability, T/C [26]: 12.3%
- viability, T/C [5]: 10.3%
- viability, T/C [6]: 10.5%
- viability, T/C [7]: 8.35%
- viability, T/C [8]: 11.8%
- viability, T/C [27]: 12.8%
- viability, T/C [28]: 10.7%
- viability, T/C [9]: 1.34%
- viability, T/C [10]: 3.55%
- viability, T/C [11]: 1.4%
- viability, T/C [12]: 1.47%
- viability, T/C [29]: 1.66%
- viability, T/C [30]: 1.1%
- viability, T/C [13]: 1.36%
- viability, T/C [14]: 0.1%
- viability, T/C [15]: 0.67%
- viability, T/C [16]: 0.06%
- viability, T/C [31]: 0.07%
- viability, T/C [32]: 1.87%
- viability, T/C [17]: 0.13%
- viability, T/C [18]: 0.16%
- viability, T/C [19]: 0.18%
- viability, T/C [20]: 0.15%
- viability, T/C [33]: 0.15%
- viability, T/C [34]: 0.15%
- viability, T/C [21]: 0.16%
- viability, T/C [22]: 0.66%
- viability, T/C [23]: 0.22%
- viability, T/C [24]: 1.09%
- viability, T/C [35]: 0.2%
- viability, T/C [36]: 1.04%

SMILES: O=c1[nH]cc(F)c(=O)[nH]1 + CN1CCN(c2cc(C(=O)Nc3cc4cc(-c5cnn(C)c5)ccc4cn3)ccn2)CC1
- IC50 (second compound 0.0316 µM): 1940 nM
- IC50 (second compound 0.1 µM): 1330 nM
- IC50 (second compound 0.316 µM): < 31.6 nM
- IC50 (second compound 1 µM): < 31.6 nM
- IC50 (second compound 3.16 µM): < 31.6 nM
- IC50 (second compound 10 µM): < 31.6 nM
- viability, T/C [1]: 93%
- viability, T/C [2]: 102%
- viability, T/C [3]: 95.2%
- viability, T/C [4]: 71.3%
- viability, T/C [25]: 30.6%
- viability, T/C [26]: 37.9%
- viability, T/C [5]: 73%
- viability, T/C [6]: 86.7%
- viability, T/C [7]: 73.5%
- viability, T/C [8]: 57.1%
- viability, T/C [27]: 27.7%
- viability, T/C [28]: 30.2%
- viability, T/C [9]: 2.26%
- viability, T/C [10]: 2.2%
- viability, T/C [11]: 3.74%
- viability, T/C [12]: 2.11%
- viability, T/C [29]: 3.66%
- viability, T/C [30]: 2.07%
- viability, T/C [13]: 0.1%
- viability, T/C [14]: 0.11%
- viability, T/C [15]: 0.74%
- viability, T/C [16]: 0.06%
- viability, T/C [31]: 0.05%
- viability, T/C [32]: 0.08%
- viability, T/C [17]: 0.14%
- viability, T/C [18]: 0.39%
- viability, T/C [19]: 0.44%
- viability, T/C [20]: 0.1%
- viability, T/C [33]: 0.14%
- viability, T/C [34]: 0.59%
- viability, T/C [21]: 0.05%
- viability, T/C [22]: 0.14%
- viability, T/C [23]: 0.14%
- viability, T/C [24]: 0.17%
- viability, T/C [35]: 0.16%
- viability, T/C [36]: 0.17%
